Data set [1] is described as follows: Half life in ip dosed mouse. As to conditions: in vivo. It is filed as ADME, organism-based.
Data set [2] has as its system HCT-116. Briefly: Cytotoxicity against human HCT-116 cells assessed as decrease in cell viability incubated for 48 hrs by SRB assay. The class given is functional, cell-based. Conditions: HCT-116, 48 h.
Data set [3] relates to HT-29. As to the kind of experiment: Cytotoxicity against human HT-29 cells assessed as decrease in cell viability incubated for 48 hrs by SRB assay. It is filed as functional, cell-based. As to conditions: HT-29, 48 h. On the technique in general: The SRB assay estimates cell density from bound dye.
Data set [4] relates to SW480. Briefly: Cytotoxicity against human SW480 cells assessed as decrease in cell viability incubated for 48 hrs by SRB assay. The class given is functional, cell-based. Conditions: SW480, 48 h.
Data set [5] concerns SW-620. As to the kind of experiment: Cytotoxicity against human SW620 cells assessed as decrease in cell viability incubated for 48 hrs by SRB assay. The class given is functional, cell-based. Conditions: SW-620, 48 h.
Data set [6] deals with HCT-15. Briefly: Cytotoxicity against human HCT-15 cells assessed as decrease in cell viability incubated for 48 hrs by SRB assay. It is filed as functional, cell-based. Conditions: HCT-15, 48 h.
The test system of data set [7] is RKO. As to the kind of experiment: Cytotoxicity against human RKO cells assessed as decrease in cell viability incubated for 48 hrs by SRB assay. The class given is functional, cell-based.

Each structure is given as a SMILES string.

As a reminder, the half-life is the time in which the quantity being followed falls by half. A high value points to slow loss. By IC50 is commonly meant the concentration that inhibits the measured activity by half.

Compound `O=c1[nH]cc(F)c(=O)[nH]1` [FLUOROURACIL] had a half-life in data set [1] of 1.36 h. For the same compound, the IC50 in data set [2], in data set [3], in data set [4], in data set [5], in data set [6] and in data set [7] was 12 µM in each case.

(Values after ChEMBL document CHEMBL5390201, “The Natural Alkaloid (-)-N-Hydroxyapiosporamide Suppresses Colorectal Tumor Progression as an NF-κB Pathway Inhibitor by Targeting the TAK1-TRAF6 Complex” (J Nat Prod, 2023).)
